In patent US20180021429A1, “ANTICANCER AGENTS OR ANTIMETASTATIC AGENTS USING FSTL1 AND COMBINATION DRUG THEREOF” (PHARMA FOODS INTERNATIONAL CO., LTD., priority 2015, published 2018):

Tested on: mouse lung cancer 3LL
Test: Combined use with CPA in subcutaneously mouse lung cancer 3LL-transplanted model (Example 35)
Format: in vivo
Conditions: CPA 2 mg/mouse/day i.p. days 4-7; anti-FSTL1 antibody 5 mg/kg i.p. days 8 and 11

## O=P1(N(CCCl)CCCl)NCCCO1 (stereo not shown) [CPA, cyclophosphamide]
  subcutaneous tumor growth / antitumor effect: strongly suppressed subcutaneous tumor growth
